According to PMC8854719, “Phase 1A/1B dose-escalation and -expansion study to evaluate the safety, pharmacokinetics, food effects and antitumor activity of pamiparib in advanced solid tumours” (British Journal of Cancer, 2021):

Assay: Safety and tolerability: adverse events, dose-limiting toxicities, MTD, RP2D (Phase 1A/1B)
Assay type: in vivo
Experimental: This was an open-label, Phase 1, dose-escalation/dose-expansion study, conducted across six study centres in Australia. The dose-escalation phase evaluated twice-daily (BID) and once-daily (QD) dosing, and the dose-expansion phase evaluated the BID RP2D from the dose-escalation phase and food effects (Fig. 1). The food-effects cohort comprised two sequences: fast followed by fed (sequence 1) and fed followed by fast (sequence 2). […] The decision to proceed to the next dose cohort was determined by the Safety Monitoring Committee and followed a modified 3 + 3 escalation scheme. […] When ≥2 DLTs occurred in the first 23 days of a dose level, the next lower dose level was declared the MTD. Safety was monitored and DLTs were assessed in all dose cohorts. […] The food-effects cohort investigated the effects of food on the PK of pamiparib in patients with advanced solid tumours.
The QD dosing regimen was added as an amendment to the protocol with the purpose of exploring the feasibility of a more convenient regimen.
Safety and tolerability were assessed throughout the study by monitoring adverse events (AEs), serious AEs, clinical laboratory measurements and physical examinations. Adverse events were categorised according to their severity (National Cancer Institute Common Terminology Criteria for Adverse Events v4.03) and relationship to the study treatment.

## C[C@]12CCCN1CC1=NNC(=O)c3cc(F)cc4[nH]c2c1c34 [pamiparib]
2.5 mg BID (n = 4)
  Abdominal pain, AE of any grade: 1 (25.0) n (%)
  Anaemia, AE of any grade: 1 (25.0) n (%)
  Ascites, AE of any grade: 1 (25.0) n (%)
  Back pain, AE of any grade: 0 (0.0) n (%)
  Constipation, AE of any grade: 1 (25.0) n (%)
  Cough, AE of any grade: 0 (0.0) n (%)
  Decreased appetite, AE of any grade: 0 (0.0) n (%)
  Diarrhoea, AE of any grade: 0 (0.0) n (%)
  Dose-limiting toxicity: 0 (0.0) n (%)
  Dyspnoea, AE of any grade: 0 (0.0) n (%)
  Fatigue, AE of any grade: 1 (25.0) n (%)
  Headache, AE of any grade: 0 (0.0) n (%)
  Hypoalbuminemia, AE of any grade: 1 (25.0) n (%)
  Hypomagnesemia, AE of any grade: 0 (0.0) n (%)
  Hypophosphatemia, AE of any grade: 0 (0.0) n (%)
  Increased AST, AE of any grade: 0 (0.0) n (%)
  Muscle spasms, AE of any grade: 1 (25.0) n (%)
  Nausea, AE of any grade: 3 (75.0) n (%)
  Neutropenia, AE of any grade: 0 (0.0) n (%)
  Non-cardiac chest pain, AE of any grade: 0 (0.0) n (%)
  Pain in extremity, AE of any grade: 0 (0.0) n (%)
  Peripheral sensory neuropathy, AE of any grade: 0 (0.0) n (%)
  Pleural effusion, AE of any grade: 0 (0.0) n (%)
  Pyrexia, AE of any grade: 1 (25.0) n (%)
  Treatment-emergent AE: 4 (100.0) n (%)
  Treatment-emergent AE: Grade 3 or higher: 3 (75.0) n (%)
  Treatment-emergent AE: Leading to death: 0 (0.0) n (%)
  Treatment-emergent AE: Leading to dose interruption: 1 (25.0) n (%)
  Treatment-emergent AE: Leading to dose modification: 1 (25.0) n (%)
  Treatment-emergent AE: Leading to dose reduction: 0 (0.0) n (%)
  Treatment-emergent AE: Leading to treatment discontinuation: 0 (0.0) n (%)
  Treatment-emergent AE: Serious: 3 (75.0) n (%)
  Treatment-related AE: 3 (75.0) n (%)
  Treatment-related AE: Grade 3 or higher: 0 (0.0) n (%)
  Treatment-related AE: Leading to death: 0 (0.0) n (%)
  Treatment-related AE: Leading to dose interruption: 0 (0.0) n (%)
  Treatment-related AE: Leading to dose modification: 0 (0.0) n (%)
  Treatment-related AE: Leading to dose reduction: 0 (0.0) n (%)
  Treatment-related AE: Leading to treatment discontinuation: 0 (0.0) n (%)
  Treatment-related AE: Serious: 0 (0.0) n (%)
  Upper respiratory tract infection, AE of any grade: 1 (25.0) n (%)
  Urinary tract infection, AE of any grade: 0 (0.0) n (%)
  Vomiting, AE of any grade: 1 (25.0) n (%)
5.0 mg BID (n = 3)
  Abdominal pain, AE of any grade: 0 (0.0) n (%)
  Anaemia, AE of any grade: 0 (0.0) n (%)
  Ascites, AE of any grade: 0 (0.0) n (%)
  Back pain, AE of any grade: 0 (0.0) n (%)
  Constipation, AE of any grade: 0 (0.0) n (%)
  Cough, AE of any grade: 0 (0.0) n (%)
  Decreased appetite, AE of any grade: 0 (0.0) n (%)
  Diarrhoea, AE of any grade: 1 (33.3) n (%)
  Dose-limiting toxicity: 0 (0.0) n (%)
  Dyspnoea, AE of any grade: 0 (0.0) n (%)
  Fatigue, AE of any grade: 1 (33.3) n (%)
  Headache, AE of any grade: 1 (33.3) n (%)
  Hypoalbuminemia, AE of any grade: 0 (0.0) n (%)
  Hypomagnesemia, AE of any grade: 0 (0.0) n (%)
  Hypophosphatemia, AE of any grade: 0 (0.0) n (%)
  Increased AST, AE of any grade: 0 (0.0) n (%)
  Muscle spasms, AE of any grade: 1 (33.3) n (%)
  Nausea, AE of any grade: 0 (0.0) n (%)
  Neutropenia, AE of any grade: 0 (0.0) n (%)
  Non-cardiac chest pain, AE of any grade: 0 (0.0) n (%)
  Pain in extremity, AE of any grade: 0 (0.0) n (%)
  Peripheral sensory neuropathy, AE of any grade: 1 (33.3) n (%)
  Pleural effusion, AE of any grade: 1 (33.3) n (%)
  Pyrexia, AE of any grade: 0 (0.0) n (%)
  Treatment-emergent AE: 3 (100.0) n (%)
  Treatment-emergent AE: Grade 3 or higher: 1 (33.3) n (%)
  Treatment-emergent AE: Leading to death: 0 (0.0) n (%)
  Treatment-emergent AE: Leading to dose interruption: 1 (33.3) n (%)
  Treatment-emergent AE: Leading to dose modification: 1 (33.3) n (%)
  Treatment-emergent AE: Leading to dose reduction: 0 (0.0) n (%)
  Treatment-emergent AE: Leading to treatment discontinuation: 0 (0.0) n (%)
  Treatment-emergent AE: Serious: 2 (66.7) n (%)
  Treatment-related AE: 2 (66.7) n (%)
  Treatment-related AE: Grade 3 or higher: 0 (0.0) n (%)
  Treatment-related AE: Leading to death: 0 (0.0) n (%)
  Treatment-related AE: Leading to dose interruption: 0 (0.0) n (%)
  Treatment-related AE: Leading to dose modification: 0 (0.0) n (%)
  Treatment-related AE: Leading to dose reduction: 0 (0.0) n (%)
  Treatment-related AE: Leading to treatment discontinuation: 0 (0.0) n (%)
  Treatment-related AE: Serious: 0 (0.0) n (%)
  Upper respiratory tract infection, AE of any grade: 0 (0.0) n (%)
  Urinary tract infection, AE of any grade: 0 (0.0) n (%)
  Vomiting, AE of any grade: 0 (0.0) n (%)
10 mg BID (n = 3)
  Abdominal pain, AE of any grade: 1 (33.3) n (%)
  Anaemia, AE of any grade: 1 (33.3) n (%)
  Ascites, AE of any grade: 2 (66.7) n (%)
  Back pain, AE of any grade: 0 (0.0) n (%)
  Constipation, AE of any grade: 1 (33.3) n (%)
  Cough, AE of any grade: 1 (33.3) n (%)
  Decreased appetite, AE of any grade: 0 (0.0) n (%)
  Diarrhoea, AE of any grade: 1 (33.3) n (%)
  Dose-limiting toxicity: 0 (0.0) n (%)
  Dyspnoea, AE of any grade: 1 (33.3) n (%)
  Fatigue, AE of any grade: 0 (0.0) n (%)
  Headache, AE of any grade: 0 (0.0) n (%)
  Hypoalbuminemia, AE of any grade: 0 (0.0) n (%)
  Hypomagnesemia, AE of any grade: 1 (33.3) n (%)
  Hypophosphatemia, AE of any grade: 0 (0.0) n (%)
  Increased AST, AE of any grade: 0 (0.0) n (%)
  Muscle spasms, AE of any grade: 0 (0.0) n (%)
  Nausea, AE of any grade: 1 (33.3) n (%)
  Neutropenia, AE of any grade: 0 (0.0) n (%)
  Non-cardiac chest pain, AE of any grade: 0 (0.0) n (%)
  Pain in extremity, AE of any grade: 0 (0.0) n (%)
  Peripheral sensory neuropathy, AE of any grade: 0 (0.0) n (%)
  Pleural effusion, AE of any grade: 0 (0.0) n (%)
  Pyrexia, AE of any grade: 1 (33.3) n (%)
  Treatment-emergent AE: 3 (100.0) n (%)
  Treatment-emergent AE: Grade 3 or higher: 2 (66.7) n (%)
  Treatment-emergent AE: Leading to death: 0 (0.0) n (%)
  Treatment-emergent AE: Leading to dose interruption: 1 (33.3) n (%)
  Treatment-emergent AE: Leading to dose modification: 1 (33.3) n (%)
  Treatment-emergent AE: Leading to dose reduction: 0 (0.0) n (%)
  Treatment-emergent AE: Leading to treatment discontinuation: 0 (0.0) n (%)
  Treatment-emergent AE: Serious: 2 (66.7) n (%)
  Treatment-related AE: 0 (0.0) n (%)
  Treatment-related AE: Grade 3 or higher: 0 (0.0) n (%)
  Treatment-related AE: Leading to death: 0 (0.0) n (%)
  Treatment-related AE: Leading to dose interruption: 0 (0.0) n (%)
  Treatment-related AE: Leading to dose modification: 0 (0.0) n (%)
  Treatment-related AE: Leading to dose reduction: 0 (0.0) n (%)
  Treatment-related AE: Leading to treatment discontinuation: 0 (0.0) n (%)
  Treatment-related AE: Serious: 0 (0.0) n (%)
  Upper respiratory tract infection, AE of any grade: 0 (0.0) n (%)
  Urinary tract infection, AE of any grade: 0 (0.0) n (%)
  Vomiting, AE of any grade: 1 (33.3) n (%)
20 mg BID (n = 3)
  Abdominal pain, AE of any grade: 2 (66.7) n (%)
  Anaemia, AE of any grade: 0 (0.0) n (%)
